Test results reported in US20240101570A1 (AMGEN INC., priority 2020, published 2024).
pIC50: −log10 of the molar value.

Tests used:
HCT116 WT cells = experiment: HCT116 WT cell proliferation / viability (CellTiter-Glo, 6 days); type: cell-based; conditions: Homo sapiens, HCT-116, 144 h, HCT116 WT cells, 6 days, CellTiter-Glo; read-out: HCT-116 WT IC50
In short: (§1)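 CellTiter-Glo luminescence, 6-day exposure, RPMI 1640 + 10% FBS. Dosing: 1:3 series (8-9 pts, top 1 or 10 μM) or 1:2 series (22 pts, top 10 or 50 μM), DMSO control. IC50 = 50% of control via curve fit.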

HCT116 MTAP null cells = experiment: HCT116 MTAP null cell proliferation / viability (CellTiter-Glo, 6 days); type: cell-based; conditions: HCT116-MTAP null, 144 h, HCT116 MTAP null cells, 6 days, CellTiter-Glo; read-out: HCT-116 MTAP null IC50
In short: as §1

| pIC50 (HCT116 WT cells) | pIC50 (HCT116 MTAP null cells) | Compound |
| --- | --- | --- |
| 6.01 | 7.72 | CCN(Cc1ccc(C(F)(F)F)cn1)C(=O)c1ccc2nc(N)c3cnn(C)c3c2c1 [Example 546, 4-amino-N-ethyl-1-methyl-N-((5-(trifluoromethyl)-2-pyridinyl)methyl)-1H-pyrazolo[4,3-c]quinoline-8-carboxamide] |
| 4.61 | 6.18 | CCN(Cc1ccc(C(F)(F)F)cn1)C(=O)c1ccc2nc(N)c3c(C)noc3c2c1 [Example 547, 4-amino-N-ethyl-3-methyl-N-((5-(trifluoromethyl)-2-pyridinyl)methyl)[1,2]oxazolo[4,5-c]quinoline-8-carboxamide] |
| 5.16 | 7.11 | CCN(Cc1ccc(C(F)(F)F)nn1)C(=O)c1ccc2nc(N)c3cnn(C)c3c2c1 [Example 548, 4-amino-N-ethyl-1-methyl-N-((6-(trifluoromethyl)-3-pyridazinyl)methyl)-1H-pyrazolo[4,3-c]quinoline-8-carboxamide] |
| 6.31 | 7.70 | CCN(Cc1ccc(C(F)(F)F)cn1)C(=O)c1cc2c(cn1)nc(N)c1cnn(C)c12 [Example 549, 4-amino-N-ethyl-1-methyl-N-((5-(trifluoromethyl)-2-pyridinyl)methyl)-1H-pyrazolo[4,3-c][1,7]naphthyridine-8-carboxamide] |
| 5.74 | 7.18 | CCN(Cc1ccc(C(F)(F)F)nn1)C(=O)c1cc2c(cn1)nc(N)c1cnn(C)c12 [Example 550, 4-amino-N-ethyl-1-methyl-N-((6-(trifluoromethyl)-3-pyridazinyl)methyl)-1H-pyrazolo [4,3-c][1,7]naphthyridine-8-carboxamide] |
| 5.73 | 7.60 | CN(Cc1ccc(C(F)(F)F)cc1)C(=O)c1cc2c(cc1F)nc(N)c1cnn(C)c12 [Example 552, 4-amino-7-fluoro-N,1-dimethyl-N-(4-(trifluoromethyl)benzyl)-1H-pyrazolo[4,3-c]quinoline-8-carboxamide] |
| 4.91 | 6.61 | CCN(Cc1ccc(C(F)(F)F)cn1)C(=O)c1cc2c(cn1)nc(N)c1c(C)nn(C)c12 [Example 553, 4-amino-N-ethyl-1,3-dimethyl-N-((5-(trifluoromethyl)-2-pyridinyl)methyl)-1H-pyrazolo[4,3-c][1,7]naphthyridine-8-carboxamide] |
| 6.74 | 8.10 | CCN(Cc1ccc(C(F)(F)F)cn1)C(=O)c1cc2c(cc1F)nc(N)c1cnn(C)c12 [Example 554, 4-amino-N-ethyl-7-fluoro-1-methyl-N-((5-(trifluoromethyl)-2-pyridinyl)methyl)-1H-pyrazolo[4,3-c]quinoline-8-carboxamide] |
| 5.69 | 7.64 | CCN(Cc1ccc(C(F)(F)F)nn1)C(=O)c1cc2c(cc1F)nc(N)c1cnn(C)c12 [Example 555, 4-amino-N-ethyl-7-fluoro-1-methyl-N-((6-(trifluoromethyl)-3-pyridazinyl)methyl)-1H-pyrazolo[4,3-c]quinoline-8-carboxamide] |
| 6.34 | 7.85 | CCN(Cc1ccc(C(F)(F)F)cn1)C(=O)c1cc2c3c(c(N)nc2cc1F)[C@@H](C)OC3 [Example 556, (3R)-4-amino-N-ethyl-7-fluoro-3-methyl-N-((5-(trifluoromethyl)-2-pyridinyl)methyl)-1,3-dihydrofuro[3,4-c]quinoline-8-carboxamide] |
| 4.91 | 6.43 | CCN(Cc1ccc(C(F)(F)F)cn1)C(=O)c1cc2c3c(c(N)nc2cc1F)[C@H](C)OC3 [Example 557, (3S)-4-amino-N-ethyl-7-fluoro-3-methyl-N-((5-(trifluoromethyl)-2-pyridinyl)methyl)-1,3-dihydrofuro[3,4-c]quinoline-8-carboxamide] |
| 5.93 | 7.52 | CCN(Cc1ccc(C(F)(F)F)nn1)C(=O)c1cc2c3c(c(N)nc2cc1F)[C@@H](C)OC3 [Example 559, (3R)-4-amino-N-ethyl-7-fluoro-3-methyl-N-((6-(trifluoromethyl)-3-pyridazinyl)methyl)-1,3-dihydrofuro[3,4-c]quinoline-8-carboxamide] |
| 5.38 | 7.25 | CCN(Cc1ccc(C(F)(F)F)cn1)C(=O)c1cc2c(cc1F)nc(N)c1c(C)nn(C)c12 [Example 560, 4-amino-N-ethyl-7-fluoro-1,3-dimethyl-N-((5-(trifluoromethyl)-2-pyridinyl)methyl)-1H-pyrazolo[4,3-c]quinoline-8-carboxamide] |
| 5.17 | 7.05 | CN(Cc1ccc(C(F)(F)F)cn1)C(=O)c1ccc2nc(N)c3cnn(C)c3c2c1 [Example 567, 4-amino-N,1-dimethyl-N-((5-(trifluoromethyl)-2-pyridinyl)methyl)-1H-pyrazolo[4,3-c]quinoline-8-carboxamide] |
| 5.27 | 7.04 | CN(Cc1ccc(C(F)(F)F)cn1)C(=O)c1cc2c(cn1)nc(N)c1cnn(C)c12 [Example 568, 4-amino-N,1-dimethyl-N-((5-(trifluoromethyl)-2-pyridinyl)methyl)-1H-pyrazolo[4,3-c][1,7]naphthyridine-8-carboxamide] |
| 6.48 | 6.12 | Nc1nc2cc(F)c(C(=O)N(Cc3ccc(C(F)(F)F)cn3)C3CC3)cc2c2c1cnn2CC(F)(F)F [Example 570, 4-amino-N-cyclopropyl-7-fluoro-1-(2,2,2-trifluoroethyl)-N-((5-(trifluoromethyl)-2-pyridinyl)methyl)-1H-pyrazolo[4,3-c]quinoline-8-carboxamide] |
| 5.31 | 7.15 | CN(Cc1ccc(C(F)(F)F)nn1)C(=O)c1cc2c(cc1F)nc(N)c1cnn(C)c12 [Example 571, 4-amino-7-fluoro-N,1-dimethyl-N-((6-(trifluoromethyl)-3-pyridazinyl)methyl)-1H-pyrazolo[4,3-c]quinoline-8-carboxamide] |

The remaining lines, values behind:

| Compound | pIC50 (HCT116 WT cells) | pIC50 (HCT116 MTAP null cells) |
| --- | --- | --- |
| CCN(Cc1ccc(C(F)(F)F)nn1)C(=O)c1ccc2nc(N)c3c(c2c1)CO[C@@H]3C [Example 551, (3R)-4-amino-N-ethyl-3-methyl-N-((6-(trifluoromethyl)-3-pyridazinyl)methyl)-1,3-dihydrofuro[3,4-c]quinoline-8-carboxamide] | 5.25 | 6.90 |
| CN(Cc1ccc(C(F)(F)F)cc1)C(=O)c1cc2c(cc1Cl)nc(N)c1cnn(C)c12 [Example 558, 4-amino-7-chloro-N,1-dimethyl-N-(4-(trifluoromethyl)benzyl)-1H-pyrazolo[4,3-c]quinoline-8-carboxamide] | 6.38 | 7.72 |
| CN(Cc1ccc(C(F)(F)C(F)(F)F)cc1)C(=O)c1ccc2nc(N)c3cnn(C)c3c2c1 [Example 561, 4-amino-N,1-dimethyl-N-(4-(pentafluoroethyl)benzyl)-1H-pyrazolo[4,3-c]quinoline-8-carboxamide] | 5.27 | 7.05 |
| CN(Cc1ccc(C(F)(F)C(F)(F)F)cc1)C(=O)c1cc2c(cn1)nc(N)c1cnn(C)c12 [Example 562, 4-amino-N,1-dimethyl-N-(4-(pentafluoroethyl)benzyl)-1H-pyrazolo[4,3-c][1,7]naphthyridine-8-carboxamide] | 5.45 | 7.07 |
| CN(Cc1ccc(C(F)(F)C(F)(F)F)cc1)C(=O)c1cc2c(cc1F)nc(N)c1cnn(C)c12 [Example 563, 4-amino-7-fluoro-N,1-dimethyl-N-(4-(pentafluoroethyl)benzyl)-1H-pyrazolo[4,3-c]quinoline-8-carboxamide] | 5.68 | 7.55 |
| CCN(Cc1ccc(S(F)(F)(F)(F)F)cc1)C(=O)c1ccc2nc(N)c3cnn(C)c3c2c1 [Example 564, 4-amino-N-ethyl-1-methyl-N-(4-(pentafluoro-lambda~6~- sulfanyl)benzyl)-1H-pyrazolo[4,3-c]quinoline-8-carboxamide] | 6.03 | 7.68 |
| CCN(Cc1ccc(S(F)(F)(F)(F)F)cc1)C(=O)c1cc2c(cn1)nc(N)c1cnn(C)c12 [Example 565, 4-amino-N-ethyl-1-methyl-N-(4-(pentafluoro-lambda~6~- sulfanyl)benzyl)-1H-pyrazolo[4,3-c][1,7]naphthyridine-8-carboxamide] | 6.19 | 7.72 |
| CCN(Cc1ccc(S(F)(F)(F)(F)F)cc1)C(=O)c1cc2c(cc1F)nc(N)c1cnn(C)c12 [Example 566, 4-amino-N-ethyl-7-fluoro-1-methyl-N-(4-(pentafluoro-lambda~6~-sulfanyl)benzyl)-1H-pyrazolo[4,3-c]quinoline-8-carboxamide] | 6.74 | 7.89 |
| Cn1ncc2c(N)nc3ccc(C(=O)N(Cc4ccc(C(F)(F)F)cn4)C4CC4)cc3c21 [Example 569, 4-amino-N-cyclopropyl-1-methyl-N-((5-(trifluoromethyl)-2-pyridinyl)methyl)-1H-pyrazolo[4,3-c]quinoline-8-carboxamide] | 5.41 | 7.51 |
| CN(Cc1ccc(C(F)(F)F)cn1)C(=O)c1cc2c3c(c(N)nc2cc1C(F)(F)F)COC3 [Example 572, 4-amino-N-methyl-7-(trifluoromethyl)-N-((5-(trifluoromethyl)-2-pyridinyl)methyl)-1,3-dihydrofuro[3,4-c]quinoline-8-carboxamide] | < 4.30 | 6.03 |
| CN(Cc1ccc(S(F)(F)(F)(F)F)cc1)C(=O)c1ccc2nc(N)c3cnn(C)c3c2c1 [Example 573, 4-amino-N,1-dimethyl-N-(4-(pentafluoro-lambda~6~- sulfanyl)benzyl)-1H-pyrazolo[4,3-c]quinoline-8-carboxamide] | 5.43 | 7.07 |
| CN(Cc1ccc(S(F)(F)(F)(F)F)cc1)C(=O)c1cc2c(cn1)nc(N)c1cnn(C)c12 [Example 574, 4-amino-N,1-dimethyl-N-(4-(pentafluoro-lambda~6~- sulfanyl)benzyl)-1H-pyrazolo[4,3-c][1,7]naphthyridine-8-carboxamide] | 6.06 | 7.60 |
